Measurements taken from US11384075B2, “Quinolinone compounds” (Janssen Pharmaceutica NV, priority 2017, dated 2022).

Assays:
[1] = tested on: NIH/3T3 cells transfected with the same control vector; test: NIH/3T3 mock cell proliferation assay (counter assay, general toxicity); assay type: cell-based; conditions: Mus musculus, NIH3T3, 72 h, 72-hr incubation, CellTiter Glo, starting with 30 μM; counter assay for general toxicity; read-out: NIH/3T3 MOCK CTG (IC50)
Outline: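 Control-vector NIH/3T3 cells, 30,000/well in DMEM with 10% FBS, exposed 72 h at 37 °C to compound (9 points, 3-fold from 30 μM, 0.3% DMSO). CellTiter-Glo luminescence normalized to survival %; IC50, pIC50 and Hill slope from concentration-response fit.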

[2] = target: T1, NIH/3T3 cells overexpressing FGFR3 V555M-TACC3 fusion protein (Homo sapiens, UniProt P22607, V555M, cells depend on it); test: NIH/3T3 FGFR3 V555M-TACC3 cell proliferation assay; assay type: cell-based; conditions: 72-hr incubation, CellTiter Glo, starting with 10 μM; read-out: NIH/3T3 FGFR3 V555M-TACC3 CTG (IC50)
T1 construct: NIH/3T3 FGFR3 V555M-TACC3 CTG (IC50); other: 72-hr incubation, CellTiter Glo, starting with 10 μM; fused on or other part: Q9Y6A5 (Transforming acidic coiled-coil-containing protein 3)
T1 sequence (P22607 whole entry V555M, the tested form may be a part): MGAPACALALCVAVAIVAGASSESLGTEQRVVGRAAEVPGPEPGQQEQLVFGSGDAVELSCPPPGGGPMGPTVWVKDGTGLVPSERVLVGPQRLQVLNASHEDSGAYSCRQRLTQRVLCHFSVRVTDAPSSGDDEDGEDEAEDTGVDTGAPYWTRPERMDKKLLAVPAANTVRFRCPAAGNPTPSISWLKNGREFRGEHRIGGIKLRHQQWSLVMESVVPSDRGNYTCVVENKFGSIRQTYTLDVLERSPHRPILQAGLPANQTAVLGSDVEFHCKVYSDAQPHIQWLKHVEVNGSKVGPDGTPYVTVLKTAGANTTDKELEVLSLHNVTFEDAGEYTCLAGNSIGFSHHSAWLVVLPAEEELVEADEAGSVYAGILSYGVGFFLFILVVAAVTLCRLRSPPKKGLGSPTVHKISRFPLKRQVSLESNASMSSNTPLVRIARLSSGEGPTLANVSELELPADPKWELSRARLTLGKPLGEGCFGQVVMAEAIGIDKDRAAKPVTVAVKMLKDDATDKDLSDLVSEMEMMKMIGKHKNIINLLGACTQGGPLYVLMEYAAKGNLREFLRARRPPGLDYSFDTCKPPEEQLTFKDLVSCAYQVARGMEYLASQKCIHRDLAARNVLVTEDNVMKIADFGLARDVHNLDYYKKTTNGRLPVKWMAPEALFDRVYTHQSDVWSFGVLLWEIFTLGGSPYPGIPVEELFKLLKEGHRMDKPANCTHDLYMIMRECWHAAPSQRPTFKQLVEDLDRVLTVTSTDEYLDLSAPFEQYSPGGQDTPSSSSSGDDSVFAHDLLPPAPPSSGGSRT
Outline: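 NIH/3T3 cells overexpressing FGFR3 V555M-TACC3 fusion, 30,000/well in DMEM/10% FBS, treated for 72 h at 37 °C with 9 doses (4× dilutions from 10 μM top, 0.1% DMSO). CellTiter-Glo luminescence normalised to % survival; IC50, pIC50 and Hill slope from concentration-response fits.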

In the case of `C[C@H](Nc1c(-c2nc3ccc(N4CCOCC4)cc3[nH]2)c(=O)[nH]c2ccccc12)c1ncccn1` [Compound 2, (S)-3-(6-morpholino-1H-benzo[d]imidazol-2-yl)-4-((1-(pyrimidin-2-yl)ethyl)amino)-quinolin-2(1H)-one], the IC50 [1] is reported as 15.3 µM and the GI50 [2] is reported as 0.00489 µM.

`C[C@@H]1CN(c2ccc3nc(-c4c(N[C@@H](C)c5ccccn5)c5ccccc5[nH]c4=O)[nH]c3c2)C[C@H](C)O1` [Compound 4, 3-(6-((2S,6R)-2,6-dimethylmorpholino)-1H-benzo[d]imidazol-2-yl)-4-(((S)-1-(pyridin-2-yl)ethyl)amino)quinolin-2(1H)-one] gave an IC50 [1] of 7.69 µM and a GI50 [2] of 0.0427 µM.

`C[C@@H]1CN(c2ccc3nc(-c4c(N[C@@H](C)c5ccccn5)c5ccccc5[nH]c4=O)[nH]c3c2)C[C@@H](C)O1` [Compound 21, 3-(6-((2R,6R)-2,6-dimethylmorpholino)-1H-benzo[d]imidazol-2-yl)-4-(((S)-1-(pyridin-2-yl)ethyl)amino)quinolin-2(1H)-one] was tested, and the IC50 [1] was 13.6 µM and the GI50 [2] was 0.0488 µM.

`C[C@H](Nc1c(-c2nc3ccc(N4CCOCC4)c(F)c3[nH]2)c(=O)[nH]c2ccccc12)c1ccccn1` [Compound 24, (S)-3-(7-fluoro-6-morpholino-1H-benzo[d]imidazol-2-yl)-4-((1-(pyridin-2-yl)ethyl)-amino)quinolin-2(1H)-one] gave an IC50 [1] of 13.1 µM and a GI50 [2] of 0.0394 µM.
